The values that follow come from patent US20230115252A1, “METHODS FOR TREATING NEUROMUSCULAR JUNCTION-RELATED DISEASES” (NSERM (Institut National de la Sante et de la Recherche …, priority 2014, published 2023).

The test system of test [1] is Wnt/β-catenin signaling in MuSKΔCRD mice. Put plainly: β-catenin translocation to subsynaptic nuclei in isolated TA muscle fibers of treated MuSKΔCRD mice. The test is classed as in vivo. The settings on record: P40 TA muscle fibers, compared to NaCl-treated MuSKΔCRD. The method, then:
(§1) Isolated muscle fibers were labeled with antibodies as for whole-mount immunostaining Incubation times were the following: 3 hours for blocking, overnight at 4° C. for incubation with primary or secondary antibodies.
All images were collected on a microscope (model BX61; Olympus) equipped with a Fast 1394 Digital CCD FireWire camera (model Retiga 2000R; Qimaging) and a 20× objective or on a confocal laser scanning microscope (Zeiss LSM-710) equipped with a 20× objective and 63× oil objective. Collected Z-stacks confocal images (5 to 20 stacks with 1 to 1.5 μm (20×) z-steps) and image capture were made using LSM Image Browser. The same laser power and parameter setting were applied to ensure fair comparison between WT and MuSKΔCRD muscles. Multiple Tile Scanned images were taken to cover the size of the whole diaphragm. […] For quantification of the AChR clusters number, volume and intensity, image stacks were quantified using the ImageJ (version 1.46m) plugin “3D object counter” (Bolte and Cordeliéres, 2006). […] At least 4 diaphragms or 50 isolated muscle fibers of each genotype were analyzed and quantified. To evaluate β-catenin translocation to subsynaptic nuclei in isolated muscle fibers, image stacks corresponding to nuclei were used for quantification using the ImageJ intensity plot profile measuring the intensity of β-catenin and Dapi fluorescence within the segmented line. […]

In test [2] the test system is Wnt/β-catenin signaling in MuSKΔCRD primary myotubes. Put plainly: β-catenin translocation to the nucleus in primary myotubes. The test is classed as cell-based, mice. Here is the method:
(§2) Muscle cells were isolated from P7-P10 hind limb Tibialis Anterior (TA) and Gastrocnemius muscles from MuSKΔCRD or WT mice. Briefly, muscle tissues were excised, separated from connective tissue, minced in dissecting medium (DMEM-F12 medium containing 2 mM glutamine, 2% penicillin/streptomycin (500 U), 2% Fungizone) and dissociated in dissecting medium containing 0.2% type I collagenase (Gibco) for 90 min at 37° C. in water bath. Cells were centrifugated, filtered and resuspended in proliferating medium (dissecting medium supplemented with 20% horse serum and 2% Ultroser G, Pall). After overnight pre-plating, cells were expanded in Matrigel (Corning) coated dishes for 3 to 5 days and differentiated in differentiating medium (dissecting medium supplemented with 2% horse serum) for 5 days. When indicated, myotubes were treated with recombinant Agrin (0.4 μg/ml, R&D system), Wnt11 (10 ng/ml, R&D system) or LiCl (2.5 mM, Sigma) for 16 h.

Test [3] relates to MuSKΔCRD mice. Put plainly: Rail-grip test and grip strength in treated MuSKΔCRD mice. The settings on record: compared to NaCl-treated MuSKΔCRD mice. The test is classed as in vivo. Here is the method: Animals were allowed to grasp a metal rail suspended in midair and their latency to release the rail was recorded. Each mouse (N=6 for each genotype) was subjected to five trials with at least 10 min rest period between tests.
The grip strength was measured using a grip force tensiometer (Bioseb) according to the TREAT-NMD guidelines. Forelimbs and hindlimbs traction strength were recorded according to the manufacter's instructions. Three measurements were performed per animal.
(§3) E12 pregnant mice or P10 adult mice were intraperitoneally injected with LiCl (Sigma, 600 mM-10 μl/g body weight) or placebo NaCl solution (0,0009%-10 μl/g body weight). Daily injections were made from E12 to E18 or from P10 to P60. After embryos genotyping, E18.5 or P60 diaphragms of LiCl-treated MuSKΔCRD mice were analyzed and compared to WT or NaCl-treated MuSKΔCRD.

Test [4] has as its system MuSKΔCRD mice. Put plainly: NMJ morphology in postnatal MuSKΔCRD mice injected P10 to P60 (isolated TA muscle fibers). The format is in vivo. The method, then: as §1
(§4) All images were collected on a microscope (model BX61; Olympus) equipped with a Fast 1394 Digital CCD FireWire camera (model Retiga 2000R; Qimaging) and a 20× objective or on a confocal laser scanning microscope (Zeiss LSM-710) equipped with a 20× objective and 63× oil objective. Collected Z-stacks confocal images (5 to 20 stacks with 1 to 1.5 μm (20×) z-steps) and image capture were made using LSM Image Browser. The same laser power and parameter setting were applied to ensure fair comparison between WT and MuSKΔCRD muscles. Multiple Tile Scanned images were taken to cover the size of the whole diaphragm. Confocal images presented are single-projected image derived from overlaying each set of stacks. For quantification of the AChR clusters number, volume and intensity, image stacks were quantified using the ImageJ (version 1.46m) plugin “3D object counter” (Bolte and Cordeliéres, 2006). The threshold intensity was set by visual inspection of AChR clusters, being the same between WT and MuSKΔCRD images. The endplate band width was defined by the distance between the two farthest AChR clusters from the main nerve trunk. Around 100 measurements regularly spaced and covering the entire diaphragm were taken. At least 4 diaphragms or 50 isolated muscle fibers of each genotype were analyzed and quantified. To evaluate β-catenin translocation to subsynaptic nuclei in isolated muscle fibers, image stacks corresponding to nuclei were used for quantification using the ImageJ intensity plot profile measuring the intensity of β-catenin and Dapi fluorescence within the segmented line.
E12 pregnant mice or P10 adult mice were intraperitoneally injected with LiCl (Sigma, 600 mM-10 μl/g body weight) or placebo NaCl solution (0,0009%-10 μl/g body weight). Daily injections were made from E12 to E18 or from P10 to P60. […]

Test [5] relates to MuSKΔCRD primary myotubes. Put plainly: AChR clustering in MuSKΔCRD primary myotubes. The test is classed as cell-based, mice. As to conditions: 16 h. Here is the method:
as §2
All images were collected on a microscope (model BX61; Olympus) equipped with a Fast 1394 Digital CCD FireWire camera (model Retiga 2000R; Qimaging) and a 20× objective or on a confocal laser scanning microscope (Zeiss LSM-710) equipped with a 20× objective and 63× oil objective. Collected Z-stacks confocal images (5 to 20 stacks with 1 to 1.5 μm (20×) z-steps) and image capture were made using LSM Image Browser. The same laser power and parameter setting were applied to ensure fair comparison between WT and MuSKΔCRD muscles. […] For quantification of the AChR clusters number, volume and intensity, image stacks were quantified using the ImageJ (version 1.46m) plugin “3D object counter” (Bolte and Cordeliéres, 2006). […] At least 4 diaphragms or 50 isolated muscle fibers of each genotype were analyzed and quantified. To evaluate β-catenin translocation to subsynaptic nuclei in isolated muscle fibers, image stacks corresponding to nuclei were used for quantification using the ImageJ intensity plot profile measuring the intensity of β-catenin and Dapi fluorescence within the segmented line.

Test [6] concerns MuSKΔCRD embryos. Put plainly: NMJ formation in E18.5 MuSKΔCRD embryos after intraperitoneal injections in pregnant mice (whole mount diaphragm). The format is in vivo. Here is the method: Diaphragm muscles were dissected and fixed (4% paraformaldehyde in PBS) for 1 h at room temperature and further fixed (1% formaldehyde in PBS) overnight at 4° C. Muscles were washed three times for 15 minutes in PBS, incubated for 15 minutes with 100 mM glycine in PBS and rinsed in PBS. Muscles were permeabilized (0.5% Triton X-100 in PBS) for 1 h and blocked for 4 hours in blocking buffer (3% BSA, 5% goat serum and 0.5% Triton X-100 in PBS). Muscles were incubated overnight at 4° C. with rabbit polyclonal antibodies against neurofilament and synaptophysin in blocking solution. After three 1-hour washes in PBS, muscles were incubated overnight at 4° C. with Alexa-488 goat anti-rabbit IgG and Alexa-594-conjugated-α-bungarotoxin (α-BGT) in blocking solution. After three 1-hour washes in PBS, muscles were flat-mounted in Vectashield (Vector Labs) mounting medium.
as §4, §3

Test [7] concerns WT primary myotubes. Description: AChR clustering in WT primary myotubes. The format is cell-based, mice. As to conditions: Wnt11 10 ng/ml, 16 h. The method, then: as §2, with “When indicated, myotubes were treated with recombinant Agrin (0.4 μg/ml, R&D system), Wnt11 (10 ng/ml, R&D system) or LiCl (2.5 mM, Sigma) for 16 h.” left out
All images were collected on a microscope (model BX61; Olympus) equipped with a Fast 1394 Digital CCD FireWire camera (model Retiga 2000R; Qimaging) and a 20× objective or on a confocal laser scanning microscope (Zeiss LSM-710) equipped with a 20× objective and 63× oil objective. […] For quantification of the AChR clusters number, volume and intensity, image stacks were quantified using the ImageJ (version 1.46m) plugin “3D object counter” (Bolte and Cordeliéres, 2006). […] At least 4 diaphragms or 50 isolated muscle fibers of each genotype were analyzed and quantified. […]

The mark [8] stands for this setting: P40 TA, compared to NaCl-treated mice.
Setting [9] is: E18.5, i.p. E12 to E18.5, vs NaCl-treated MuSKΔCRD.

On to `[Cl-].[Li+]` [LiCl, lithium chloride], for which, in test [1], the “β-catenin translocation to subsynaptic nuclei” value is reported as “strong increase”. For the same molecule, in test [2] (LiCl-treated compared to Wnt11-treated MuSKΔCRD myotubes), the “β-catenin translocation to the nucleus” value is reported as “increased β-catenin translocation to the nucleus”. In addition, in test [3], the fore limb strength entry is given as “significantly improved”, the hind limb strength result was “significantly improved” and the “latencies to fall from the rail grip” value was “significantly improved”. In test [4] (P40 TA isolated muscle fibers, compared to NaCl-treated MuSKΔCRD), the “size of NMJ structures” value was “increased in size”. Further, in test [4] (setting [8]), the “decrease of number of AChRs fragments per NMJ” value is 44%, the “increase of AChR cluster area” value is on record as 40% and the “increase of synaptophysin area” value is 105%. In addition, in test [5] (LiCl 2.5 mM, MuSKΔCRD primary myotubes), the “increase in the number of AChR clusters” value came to 6 fold. Also, the “reduction of number of bypassing neurites” value in test [6] (E18.5, compared to NaCl-treated embryos) worked out at 33%. Moreover, in test [6] (E18.5, i.p. E12 to E18.5), the “reduction of length of primary nerve branches” value was found to be 35% and the “reduction of length of secondary nerve branches” value is 28%. In test [6] (E18.5, i.p. E12 to E18.5, compared to NaCl-treated mutant embryos), the “endplate band width reduction” value is 23%. Moreover, in test [6] (setting [9]), the “gain in AChR clusters intensity” value is 20%, the “gain in AChR clusters number” value was 103% and the “gain in AChR clusters volume” value is 186%. The “rescue of pre- and postsynaptic defects” value in test [6] (E18.5 MuSKΔCRD embryos) was “almost fully rescued both pre- and postsynaptic defects”.
Take “agrin: recombinant Agrin (R&D system), nerve-secreted protein that binds LRP4 and activates MuSK”: the “number of AChR clusters following agrin treatment” value in test [5] (MuSKΔCRD compared to WT primary myotubes, agrin 0.4 μg/ml) is reported as “No difference”.

B1: Wnt11: member of the Wnt family known to interact with MuSK CRD; recombinant, R&D system (protein, UniProt O96014 25-354, looked up)
Protein Wnt-11: IKWLALSKTPSALALNQTQHCKQLEGLVSAQVQLCRSNLELMHTVVHAAREVMKACRRAFADMRWNCSSIELAPNYLLDLERGTRESAFVYALSAAAISHAIARACTSGDLPGCSCGPVPGEPPGPGNRWGGCADNLSYGLLMGAKFSDAPMKVKKTGSQANKLMRLHNSEVGRQALRASLEMKCKCHGVSGSCSIRTCWKGLQELQDVAADLKTRYLSATKVVHRPMGTRKHLVPKDLDIRPVKDSELVYLQSSPDFCMKNEKVGSHGTQDRQCNKTSNGSDSCDLMCCGRGYNPYTDRVVERCHCKYHWCCYVTCRRCERTVERYVCK
With B1, in test [2] (Wnt11-treated MuSKΔCRD compared to Wnt11-treated WT primary myotubes), the “β-catenin translocation to the nucleus” value is listed as “strongly reduced”. Further, in test [7], the “increase in the number of AChR clusters” value was 4.5 fold. In test [5] (Wnt11-treated MuSKΔCRD primary myotubes, compared to Wnt11-treated WT, 10 ng/ml), the “decrease of Wnt11-induced number of AChR clusters” value came to 80%.
